# From US20160220710A1, “COMPOSITIONS AND METHODS FOR DELIVERING PHARMACEUTICAL AGENTS” (THE REGENTS OF THE UNIVERSITY OF MICHIGAN, priority 2015, published 2016)
# Read-outs that look alike come from different tables or passages of the source.
# How the values were obtained:
# [1] = test system: alveolar macrophages (CD11c) and neutrophils (Ly6G); assay: Flow cytometry of alveolar exudate of drug fed mice; format: in vivo; conditions: 8 weeks
# Text: Mice (4 week old, male C57Bl6) were purchased from the Jackson Laboratory (Bar Harbor, Me.) and acclimatized for 1 week in a specific-pathogen-free animal facility. Animal care was provided by the University of Michigan's Unit for Laboratory Animal Medicine (ULAM) and the experimental protocol was approved by the Committee on Use and Care of Animals in accordance with NIH guidelines. An oral diet containing CFZ was fed to mice as previously described (Baik J, et al., Antimicrob. Agents Chemother. 2013; 57:1218-30; Baik J, et al., PLoS One 2012; 7:e47494; Keswani R K, et al., Mol. Pharm. 2015:10). […]
# Mice were euthanized as described above and the trachea was surgically exposed and cannulated with an 18G luer stub and the lungs were lavaged to obtain alveolar exudate by instilling calcium- and magnesium-free Dulbecco's PBS (DPBS) containing 0.5 mM EDTA in 1-ml aliquots for a total of 6 ml. […] Viable (using Trypan Blue staining method) and CLDI containing cells were counted using a hemocytometer.
# Peritoneal and alveolar lavage was performed as stated before to obtain the respective exudates. […] For CLDI fluorescence signal experiments, cells were pelleted by centrifugation (100×g for 5 min) followed by resuspension in PBS+5% FBS (500 μl). […] These cells also had extremely high side-scatter that were measured as saturated signals. […]
# TLR4 = assay: TNFα ELISA after LPS stimulation; format: cell-based, murine; conditions: Mus musculus, read-out: inhibition of TNFα production
# Method: (§1) The murine macrophage cell line RAW 264.7 was purchased from ATCC (Manassas, Va.) and maintained in DMEM (Life Technologies, Carlsbad, Calif.) supplemented with 10% FBS. Soluble CFZ or isolated CLDIs were added at various concentrations in DMEM with 5% FBS to 6-well plates containing 4×10^5 cells/well and incubated (24 h at 37° C. and 5% CO2). Culture supernatants were harvested at 24 h, centrifuged (1500×g for 5 min), and stored (−20° C.) in frozen aliquots prior to analysis. For experiments involving TLR stimulation, cells were washed twice with pre-warmed DPBS to remove extracellular, non-phagocytosed CLDIs or CFZ, and then the cells were serum-starved for 18 h in DMEM. Supernatants were collected from unstimulated cells and cells stimulated with 200 ng/ml Pam3 or 1 μg/ml LPS in DMEM.
# (§2) The media of cells with or without 6 h TLR stimulation by Pam3 or LPS was harvested, and TNFα and IL-1RA levels were measured by ELISA (Duoset, R&D Systems, Minneapolis, Minn.) in duplicate wells according to the manufacturer's instructions. The cytokine concentrations were expressed as picogram per milligram of cell lysate. Experiments were repeated three times and values are expressed as the mean±SD.
# TNFα = TNFα ELISA, non-stimulated cells; format: cell-based, murine; conditions: non-stimulated RAW 264.7 cells
# Method: as §1, §2
# IκB = assay: Western blot of phosphorylated IκB; format: cell-based, murine; conditions: 1 h
# Method: as §1
# [2] = humans; cited from earlier work
# [3] = cited from earlier work
structure (smiles),measurement,setting,value
"CC(C)/N=c1\cc2n(-c3ccc(Cl)cc3)c3ccccc3nc-2cc1Nc1ccc(Cl)cc1 [CFZ, 3-(p-chloroanilino)-10-(p-chlorophenyl)-2, 10-dihydro-2-isopropyliminophenazine]",% of CLDI(+) cells that are CD11c(+),[1],> 99%
same,% of Ly6G(+) cells detected as CLDI+,[1],< 2%
same,inhibition at 2 µM,TLR4; 2 μM,51.2%
same,inhibition at 4 µM,TLR4; 4 μM,76.5%
same,TNFα production on their own,TNFα,failed to induce TNFα production
same,IκB phosphorylation,IκB; LPS stimulation,inhibited LPS/TLR4-mediated IκB phosphorylation
same,IκB phosphorylation,IκB; Pam3 stimulation,the Pam3/TLR2-mediated response was not affected
same,pharmacokinetic half-life t1/2,[2],~70 days
same,half-life,"[3]; after an acute dose, oral",in the order of hours to days
same,half-life,[3]; upon prolonged oral administration,in the order of weeks to months
